Experimental findings from PubChem BioAssay AID1996 are described below.

Each structure is given as a SMILES string. Values after ≈ are worked out from the molar mass of the structure shown.

The conditions of this data set: buffer; pH 7.4; 200.0 µM.
Consider `CCc1cc(C(=O)c2ccc(OC)cc2)c(NC(=O)CN2CCCC2)s1`, for which the solubility (kinetic) (as a rule, solubility judged after dilution from a stock solution rather than from solid) came to 5.9 µg/mL (≈ 15.8 µM).
With `COc1cccc(OCCNS(=O)(=O)c2cccc([N+](=O)[O-])c2)c1` the figure was 46.6 µg/mL (≈ 132 µM).
In turn, `O=C(Nc1ccc2[nH]c(=O)[nH]c2c1)C(F)(F)F` yielded a kinetic solubility of 23.9 µg/mL (≈ 97.5 µM).
`CN1CCN(c2nc(NCc3ccco3)nc(N)c2[N+](=O)[O-])CC1`: the kinetic solubility was greater than 50 µg/mL.
For the compound `COC(=O)C(Cc1c[nH]c2ccccc12)N1CCS(=O)(=O)CC1` (stereo unspecified), the solubility (kinetic) is greater than 50.5 µg/mL.
`Nc1cc(=O)[nH]c(SCC(=O)Nc2ccc3c(c2)CCC3)n1` gave a solubility (kinetic) of 7.8 µg/mL (≈ 24.7 µM).
Take `CCN(CC)S(=O)(=O)c1ccc(NC(=S)NC(=O)C2CCC2)cc1`: the solubility (kinetic) was 18.7 µg/mL (≈ 50.6 µM).
For the compound `CCCCNC(=O)C1CC(=O)N(CCc2ccc(C)cc2)C1` (stereo unspecified), the solubility (kinetic) was greater than 45.4 µg/mL.
In turn, `Cc1ccc(SCc2nc3ncccn3c2Br)cc1` came in with a solubility (kinetic) greater than 50.1 µg/mL.
On to `COc1ccc(C(=O)N2C[C@H]3C[C@@H](C2)c2cccc(=O)n2C3)cc1OC`, for which the solubility (kinetic) is greater than 53.2 µg/mL.
`CC(=O)c1c(C)[nH]c(C(=O)COC(=O)CN2C(=O)C3CCCCC3C2=O)c1C` (stereo unspecified): the kinetic solubility is greater than 58.3 µg/mL.
For the compound `CCC1(CC)NC(=O)N(CC(=O)Nc2ccc(C)cc2C)C1=O`, the kinetic solubility is greater than 47.6 µg/mL.
In turn, `CN(C(=O)COc1ncnc2sccc12)C1CCCCC1` had a solubility (kinetic) greater than 45.8 µg/mL.
`O=C(O)C(Cc1ccc(O)cc1)N1C(=O)C2CCCCC2C1=O` (stereo unspecified) had a kinetic solubility greater than 47.6 µg/mL.
Compound `Cl.Nc1ccn([C@H]2C[C@H](O)[C@@H](CO)O2)c(=O)n1` registered a solubility (kinetic) greater than 39.6 µg/mL.
Regarding `Cc1ccc(C(=O)NCC(=O)NC2CCCCCC2)cc1`, the kinetic solubility turned out to be 21.1 µg/mL (≈ 73.2 µM).
Compound `CCOc1ccc(-c2csc(NC(=O)c3ccco3)n2)cc1` yielded a kinetic solubility of 2.6 µg/mL (≈ 8.27 µM).
As to `Cc1ccc(/C=C2\C(=O)NC(=S)N(c3cccc(F)c3)C2=O)o1`, the solubility (kinetic) came out at 43.1 µg/mL (≈ 130 µM).
With `NS(=O)(=O)c1cccc(NC(=O)COC(=O)CCC(=O)c2cccs2)c1` the figure was greater than 59.5 µg/mL.
The compound `C=CCNc1nc2ccccc2nc1NS(=O)(=O)c1ccc(OC)cc1` showed a kinetic solubility of 45.9 µg/mL (≈ 124 µM).
`CCC(C)NC(=O)c1ccccc1SC` (stereo unspecified) returned a kinetic solubility greater than 33.5 µg/mL.
`COc1cc(C)ccc1OCC(=O)OCC(=O)NCC1CCCCC1` came in with a kinetic solubility greater than 52.4 µg/mL.
The same measure for `O=C(Nc1cccc(-c2cn3ccccc3n2)c1)c1ccccc1`: 21 µg/mL (≈ 67 µM).
As for `CN(CC(=O)Nc1ccc(F)c(F)c1F)C(=O)C1COc2ccccc2O1` (stereo unspecified), the kinetic solubility was greater than 57 µg/mL.
In turn, `Cc1noc(C)c1C(=O)NCc1ccccc1Br` returned a kinetic solubility of 44.6 µg/mL (≈ 144 µM).
With `COC(=O)Cc1c(O)ccn(CCc2c[nH]c3ccc(OC)cc23)c1=O` the figure was greater than 53.5 µg/mL; with `CCOC(=O)Cn1ccc(NC(=O)c2ccc(F)cc2)n1`, greater than 43.7 µg/mL.
Consider `Cc1ccc(C(=O)O/N=C(\N)Cc2ccc([N+](=O)[O-])cc2)c(Cl)c1`, for which the solubility (kinetic) was 3.9 µg/mL (≈ 11.2 µM).
The same measure for `Cc1cc(C=O)c(C)n1C1CC1`: 17.6 µg/mL (≈ 108 µM); for `CN(C)c1nc(Nc2ccc(Cl)c(Cl)c2)nc(N(C)C)n1`: less than 0.1 µg/mL; for `Cc1ccccc1OCCn1ccnc1`: 24.5 µg/mL (≈ 121 µM).
The compound `O=C(Nc1cc(S(=O)(=O)Nc2ccccc2F)ccc1Cl)c1ccc(F)cc1F` returned a solubility (kinetic) of 2.5 µg/mL (≈ 5.67 µM).
For the compound `O=C(Nc1ccc(S(=O)(=O)N2CCCCC2)cc1)c1ccc(Cl)nc1`, the solubility (kinetic) was determined as 7.6 µg/mL (≈ 20 µM).
The same measure for `COc1ccccc1CNC(=O)N1CCN(c2ccccc2)CC1`: greater than 48.8 µg/mL; for `CNCCc1c[nH]c2ccc(O)cc12.O=C(O)C(=O)O`: greater than 42 µg/mL.
`Cc1cccc(N(C)S(=O)(=O)c2c(C)noc2C)c1` came in with a solubility (kinetic) of 37.1 µg/mL (≈ 132 µM).
The compound `CCCCOC(=O)Nc1ccc(S(=O)(=O)Nc2nccs2)cc1` registered a solubility (kinetic) of 38.1 µg/mL (≈ 107 µM).
With `C=CCn1c(C)nc2c(sc3nc4c(cc32)COC(C)(C)C4)c1=O` the figure was greater than 51.2 µg/mL.
For `COC(=O)C1=C(C)NC(=O)NC1c1ccc2ccccc2c1` (stereo unspecified), the solubility (kinetic) was less than 0.3 µg/mL.
With `Cc1cc(C)c(NC(=O)CSc2cccc[n+]2[O-])c(C)c1` the figure was greater than 45.4 µg/mL.
As for `CCOC(=O)N1CCN(C(=O)c2ccc(S(=O)(=O)Nc3ccc(C)cc3)cc2)CC1`, the kinetic solubility was greater than 64.7 µg/mL.
As to `Cc1nc(SCC(=O)N2CCCC2=O)nc(C)c1C`, the kinetic solubility was greater than 41.9 µg/mL.
In turn, `CN(CC(=O)Nc1ccc(F)cc1)CC(=O)N1CCCCCC1` had a solubility (kinetic) of 44.8 µg/mL (≈ 139 µM).
Consider `[O-][n+]1c(/C=C/c2ccccc2)ccc2ccccc21`, for which the solubility (kinetic) is greater than 37.1 µg/mL.
`C=CCNC(=O)CC1Nc2c3ccccc3nc(=S)n2C1=O` (stereo unspecified): the solubility (kinetic) was greater than 47.2 µg/mL.
Turning to `CN(C(=O)c1c[nH]c(=O)cc1C(F)(F)F)c1ccc(Cl)cc1`, the solubility (kinetic) amounted to 45.9 µg/mL (≈ 139 µM).
With `Cc1ccc(C(=O)O/N=C2/CC3CCC2(C)[C@@]3(C)CBr)cc1` (stereo partly specified) the figure was less than 0.8 µg/mL; with `CCOc1ccc(C(=O)NCc2ccco2)cc1OC`, 37.7 µg/mL (≈ 137 µM); with `CN1CCC(N(C)C(=S)NCCc2ccccc2)CC1`, greater than 43.7 µg/mL.
`Cc1ccc(Cl)cc1NC(=O)CCC(=O)O` showed a solubility (kinetic) greater than 36.3 µg/mL.
`N#CC1c2ccccc2C=CN1C(=O)c1ccccc1` (stereo unspecified) registered a kinetic solubility of 27.6 µg/mL (≈ 106 µM).
The compound `O=C(O)C1Nc2ccc(Br)cc2C2C=CCC12` (stereo unspecified) returned a solubility (kinetic) of 43.6 µg/mL (≈ 148 µM).
With `CC(=O)c1cccc(N2C(=O)CC(N3CCN(S(=O)(=O)c4ccccc4F)CC3)C2=O)c1` (stereo unspecified) the figure was greater than 68.9 µg/mL; with `COc1ccc(NC(=O)COc2ccc(Br)cc2)c(OC)c1`, less than 0.8 µg/mL; with `O=C1CN(C(=O)COC(=O)c2ccc(C(F)(F)F)cc2)c2ccccc2N1`, 2.4 µg/mL (≈ 6.34 µM).
In turn, `Cc1ccc(NC(=S)N2CCCCC2CO)cc1C` (stereo unspecified) yielded a solubility (kinetic) greater than 41.8 µg/mL.
In turn, `Cc1nnc(SCCCCSc2nnc(C)c(=O)[nH]2)[nH]c1=O` returned a solubility (kinetic) greater than 51.1 µg/mL.
Consider `O=C(C1CCC1)N1CCC(O)(c2cccc(F)c2)CC1`, for which the kinetic solubility came out at 39.4 µg/mL (≈ 142 µM).
With `CCOP(=O)(OCC)C1NC(=O)N(c2ccccc2)C1=O` (stereo unspecified), the kinetic solubility is greater than 46.8 µg/mL.
`COc1ccc(-c2ccc(S(=O)(=O)N3CCCC3)cc2)cc1` registered a kinetic solubility of 1.1 µg/mL (≈ 3.47 µM).
Turning to `O=[N+]([O-])c1ccccc1/C=C/CN1CCCCC1CO` (stereo unspecified), the kinetic solubility was 34.3 µg/mL (≈ 124 µM).
As to `COC(=O)c1c(C)[nH]c(C(=O)C(C)OC(=O)c2cnc(C)cn2)c1C` (stereo unspecified), the solubility (kinetic) stood at 49.2 µg/mL (≈ 142 µM).
With `CC(=O)c1sc(Nc2nc3cc4c(cc3s2)OCO4)nc1C` the figure was 0.6 µg/mL (≈ 1.8 µM); with `O=C(CN1C(=O)NC(c2ccccc2)(c2ccccc2)C1=O)NCCc1ccc(F)cc1`, 7.6 µg/mL (≈ 17.6 µM); with `CN(CC(=O)Nc1ccc(F)cc1)CC(=O)N1CCc2ccccc21`, greater than 51.2 µg/mL.
In the case of `CN(C)C(=S)SCCn1c(N)nc(N(C)C)nc1=O`, the solubility (kinetic) was greater than 45.4 µg/mL.
Turning to `Cc1ccc(C(=O)NC(C)C(c2cccs2)N2CCCC2)s1` (stereo unspecified), the kinetic solubility is greater than 50.2 µg/mL.
In turn, `CC1N(C(=O)N(C)C)CCN1S(=O)(=O)c1ccccc1` (stereo unspecified) came in with a kinetic solubility greater than 44.6 µg/mL.
As to `CC(OC(=O)CC1CC2CCC1C2)C(=O)Nc1ccc(C(N)=O)cc1` (stereo unspecified), the solubility (kinetic) is greater than 51.7 µg/mL.
The same measure for `CCc1cc(=S)n2c([nH]c3ccccc32)c1C#N`: 32.6 µg/mL (≈ 129 µM); for `CN(C)C(=O)Oc1cccc([N+](C)(C)C)c1.COS(=O)(=O)[O-]`: greater than 50.2 µg/mL; for `O=C(COc1ccc(F)cc1)Nc1nc2c(s1)CCCC2`: 2.6 µg/mL (≈ 8.49 µM).
Turning to `O=C(NCc1ccncc1)C(=O)Nc1ccc2c(c1)OCO2`, the kinetic solubility amounted to 9.5 µg/mL (≈ 31.7 µM).
`Cc1ccc(F)c(NC(=O)c2c(-c3ccccc3)noc2C)c1` had a solubility (kinetic) of 2.2 µg/mL (≈ 7.09 µM).
Turning to `Cc1c(C=O)c2ccccc2n1CCOc1ccccc1F`, the kinetic solubility is less than 0.6 µg/mL.
With `O=C(CCc1c[nH]c2ccccc12)OCc1cccc(C(F)(F)F)c1` the figure was 1 µg/mL (≈ 2.88 µM).
With `CCCn1c2ccccc2c2cnn(CC(=O)NCCN(C)C)c(=O)c21` the figure was greater than 53.3 µg/mL; with `O=C(COc1ccc2ccc(=O)oc2c1)NC1CCCCC1`, greater than 45.2 µg/mL; with `COc1ccc2cc(C(=O)NCC3CCCO3)[nH]c2c1` (stereo unspecified), greater than 41.1 µg/mL.
In turn, `O=C(Nc1ccncc1Cl)c1ccncc1` had a kinetic solubility greater than 35 µg/mL.
In the case of `O=C(c1ccc2c(c1)OCCO2)N1CCN(c2ccccn2)CC1`, the kinetic solubility was greater than 48.8 µg/mL.
With `C=CCn1c(SCC(C)=O)nc2scc(-c3ccc(C)o3)c2c1=O` the figure was 1.6 µg/mL (≈ 4.44 µM).
The compound `Cc1ccc(OCc2cnc(Cl)s2)c(C)c1` had a kinetic solubility of less than 0.5 µg/mL.
For the compound `COc1ccc(/C=C/C(=O)O)cc1S(=O)(=O)N1CCC(Cc2ccccc2)CC1`, the kinetic solubility was determined as 61.6 µg/mL (≈ 148 µM).
As to `CCC(C(=O)NC1CCCCCC1)c1ccccc1` (stereo unspecified), the kinetic solubility came out at 33.4 µg/mL (≈ 129 µM).
For the compound `CSc1ccccc1C(=O)NC1CCCc2ccccc21` (stereo unspecified), the solubility (kinetic) came out at 11.7 µg/mL (≈ 39.3 µM).
As to `Nc1cccc2c1C(=O)N(Cc1cccc(Cl)c1)C2=O`, the kinetic solubility is less than 0.3 µg/mL.
As for `NS(=O)(=O)c1cccc(NC(=O)CSc2nnc(-c3ccccc3)o2)c1`, the solubility (kinetic) was greater than 58.6 µg/mL.
As to `COc1ccc2c(c1)c(C(=O)CN1CCc3ccccc3C1)c(C)n2C`, the solubility (kinetic) is 29.6 µg/mL (≈ 84.9 µM).
Turning to `O=C(Nc1cccc(S(=O)(=O)N2CCCC2)c1)c1ccncc1`, the solubility (kinetic) came out at 46.9 µg/mL (≈ 142 µM).
The compound `O=[N+]([O-])c1ccc(Cc2cncc(O)c2)cc1` had a solubility (kinetic) of 34.1 µg/mL (≈ 148 µM).
Compound `O=c1[nH]c(Sc2ccc([N+](=O)[O-])cc2[N+](=O)[O-])nc2ccccc12` returned a solubility (kinetic) of 26.3 µg/mL (≈ 76.4 µM).
The same measure for `O=C(c1cc(-c2ccccc2)nc2ccccc12)N1CCCC1`: 42 µg/mL (≈ 139 µM); for `CN(C)CCCNC(=S)Nc1ccc(Br)cc1`: greater than 47.4 µg/mL; for `O=c1cc(-c2ccccc2O)nc(-c2ccccc2)[nH]1`: 0.8 µg/mL (≈ 3.03 µM).
Turning to `O=S(=O)(Nc1ccon1)c1ccc(Br)s1`, the solubility (kinetic) was 31.3 µg/mL (≈ 101 µM).
`O=C(Nc1ccc2c(c1)OCCO2)c1ccc(Cl)c(Cl)c1`: the solubility (kinetic) was less than 0.7 µg/mL.
`COc1cc(C(=O)O)c([N+](=O)[O-])c(OC)c1OC` displayed a solubility (kinetic) greater than 38.6 µg/mL.
In turn, `COc1cc(NC(=O)CN2C(=O)CN(C)C2=O)c(C)cc1[N+](=O)[O-]` returned a kinetic solubility greater than 50.4 µg/mL.
Regarding `CCCCNC(=O)CN1C(=O)NC2(CCOc3ccccc32)C1=O` (stereo unspecified), the solubility (kinetic) was greater than 49.7 µg/mL.
Regarding `COc1ccc(CNC(=O)COC(=O)Cc2ccc(Br)cc2)cc1`, the solubility (kinetic) came out at 5.8 µg/mL (≈ 14.8 µM).
